Assays:
[1] = biological target: Ephrin type-B receptor 1 (Homo sapiens) (UniProt P54762); details: Compound concentration 1000.0 nM
[2] = biological target: Phosphatidylinositol 4,5-bisphosphate 3-kinase catalytic subunit beta isoform (Homo sapiens) (UniProt P42338); details: Compound concentration 1000.0 nM
[3] = biological target: Receptor-interacting serine/threonine-protein kinase 4 (Homo sapiens) (UniProt P57078); details: Compound concentration 1000.0 nM
[4] = biological target: D(4) dopamine receptor (Homo sapiens) (UniProt P21917); details: Compound concentration 10.0 uM
[5] = biological target: Serine/threonine-protein kinase Nek3 (Homo sapiens) (UniProt P51956); details: Compound concentration 1000.0 nM
[6] = biological target: NUAK family SNF1-like kinase 2 (Homo sapiens) (UniProt Q9H093); details: Compound concentration 1000.0 nM
[7] = biological target: STE20/SPS1-related proline-alanine-rich protein kinase (Homo sapiens) (UniProt Q9UEW8); details: Compound concentration 1000.0 nM
[8] = biological target: Tyrosine-protein kinase Fgr (Homo sapiens) (UniProt P09769); details: Compound concentration 1000.0 nM
[9] = biological target: Mitogen-activated protein kinase kinase kinase 5 (Homo sapiens) (UniProt Q99683); details: Compound concentration 1000.0 nM
[10] = biological target: Serine/threonine-protein kinase haspin (Homo sapiens) (UniProt Q8TF76); details: Compound concentration 1000.0 nM
[11] = biological target: Wee1-like protein kinase (Homo sapiens) (UniProt P30291); details: Compound concentration 1000.0 nM
[12] = biological target: Casein kinase I isoform alpha (Homo sapiens) (UniProt P48729); details: Compound concentration 1000.0 nM
[13] = biological target: Cyclin-dependent kinase 8 (Homo sapiens) (UniProt P49336); details: Compound concentration 1000.0 nM
[14] = biological target: Alpha-2B adrenergic receptor (Homo sapiens) (UniProt P18089); details: Compound concentration 10.0 uM
[15] = biological target: 5-hydroxytryptamine receptor 3A (Homo sapiens) (UniProt P46098); details: Compound concentration 10.0 uM
[16] = biological target: Ephrin type-A receptor 2 (Homo sapiens) (UniProt P29317); details: Compound concentration 1000.0 nM
[17] = biological target: Tyrosine-protein kinase Yes (Homo sapiens) (UniProt P07947); details: Compound concentration 1000.0 nM
[18] = biological target: Dual serine/threonine and tyrosine protein kinase (Homo sapiens) (UniProt Q6XUX3); details: Compound concentration 1000.0 nM
[19] = biological target: Serine/threonine-protein kinase Chk2 (Homo sapiens) (UniProt O96017); details: Compound concentration 1000.0 nM
[20] = biological target: Interleukin-1 receptor-associated kinase 4 (Homo sapiens) (UniProt Q9NWZ3); details: Compound concentration 1000.0 nM
[21] = biological target: Interferon-induced, double-stranded RNA-activated protein kinase (Homo sapiens) (UniProt P19525); details: Compound concentration 1000.0 nM
[22] = tested on: Phosphatidylinositol 4,5-bisphosphate 3-kinase catalytic subunit alpha isoform (Homo sapiens), P42336 [M1043I]; details: Compound concentration 1000.0 nM
[23] = biological target: Muscarinic acetylcholine receptor M2 (Homo sapiens) (UniProt P08172); details: Compound concentration 10.0 uM
[24] = biological target: Protein-tyrosine kinase 2-beta (Homo sapiens) (UniProt Q14289); details: Compound concentration 1000.0 nM
[25] = biological target: Peripheral plasma membrane protein CASK (Homo sapiens) (UniProt O14936); details: Compound concentration 1000.0 nM
[26] = biological target: Serine/threonine-protein kinase SIK2 (Homo sapiens) (UniProt Q9H0K1); details: Compound concentration 1000.0 nM
[27] = biological target: Death-associated protein kinase 3 (Homo sapiens) (UniProt O43293); details: Compound concentration 1000.0 nM
[28] = biological target: 5'-AMP-activated protein kinase catalytic subunit alpha-2 (Homo sapiens) (UniProt P54646); details: Compound concentration 1000.0 nM
[29] = biological target: Cyclin-dependent kinase 7 (Homo sapiens) (UniProt P50613); details: Compound concentration 1000.0 nM
[30] = biological target: Tyrosine-protein kinase receptor UFO (Homo sapiens) (UniProt P30530); details: Compound concentration 1000.0 nM
[31] = biological target: Calcium/calmodulin-dependent protein kinase type II subunit delta (Homo sapiens) (UniProt Q13557); details: Compound concentration 1000.0 nM
[32] = biological target: Eukaryotic translation initiation factor 2-alpha kinase 1 (Homo sapiens) (UniProt Q9BQI3); details: Compound concentration 1000.0 nM
[33] = biological target: RAF proto-oncogene serine/threonine-protein kinase (Homo sapiens) (UniProt P04049); details: Compound concentration 1000.0 nM
[34] = tested on: Phosphatidylinositol 4,5-bisphosphate 3-kinase catalytic subunit alpha isoform (Homo sapiens), P42336 [E545K]; details: Compound concentration 1000.0 nM
[35] = biological target: Serine/threonine-protein kinase ULK1 (Homo sapiens) (UniProt O75385); details: Compound concentration 1000.0 nM
[36] = biological target: Serine/threonine-protein kinase 32A (Homo sapiens) (UniProt Q8WU08); details: Compound concentration 1000.0 nM
[37] = biological target: 3-phosphoinositide-dependent protein kinase 1 (Homo sapiens) (UniProt O15530); details: Compound concentration 1000.0 nM
[38] = biological target: MAP/microtubule affinity-regulating kinase 3 (Homo sapiens) (UniProt P27448); details: Compound concentration 1000.0 nM
[39] = biological target: Non-receptor tyrosine-protein kinase TYK2 (Homo sapiens) (UniProt P29597); details: Compound concentration 1000.0 nM
[40] = biological target: Aurora kinase B (Homo sapiens) (UniProt Q96GD4); details: Compound concentration 1000.0 nM
[41] = tested on: Receptor-type tyrosine-protein kinase FLT3 (Homo sapiens), P36888 [R834Q]; details: Compound concentration 1000.0 nM
[42] = biological target: Calcium/calmodulin-dependent protein kinase kinase 1 (Homo sapiens) (UniProt Q8N5S9); details: Compound concentration 1000.0 nM
[43] = biological target: D(1B) dopamine receptor (Homo sapiens) (UniProt P21918); details: Compound concentration 10.0 uM
[44] = biological target: Ephrin type-B receptor 4 (Homo sapiens) (UniProt P54760); details: Compound concentration 1000.0 nM
[45] = biological target: Tyrosine-protein kinase Lck (Homo sapiens) (UniProt P06239); details: Compound concentration 1000.0 nM

Sequence of Alpha-2B adrenergic receptor (Homo sapiens) (P18089 whole entry): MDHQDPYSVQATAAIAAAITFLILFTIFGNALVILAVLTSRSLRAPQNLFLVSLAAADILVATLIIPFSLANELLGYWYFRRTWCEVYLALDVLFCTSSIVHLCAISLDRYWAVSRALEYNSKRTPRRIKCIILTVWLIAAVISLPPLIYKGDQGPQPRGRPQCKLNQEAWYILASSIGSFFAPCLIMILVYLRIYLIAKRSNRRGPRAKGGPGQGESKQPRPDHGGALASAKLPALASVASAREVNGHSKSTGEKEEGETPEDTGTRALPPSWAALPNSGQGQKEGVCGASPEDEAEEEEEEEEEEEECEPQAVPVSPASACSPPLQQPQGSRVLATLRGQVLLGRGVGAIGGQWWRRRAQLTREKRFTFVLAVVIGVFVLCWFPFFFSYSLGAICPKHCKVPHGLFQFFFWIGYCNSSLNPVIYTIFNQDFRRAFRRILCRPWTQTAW
Sequence of Cyclin-dependent kinase 7 (Homo sapiens) (P50613 whole entry): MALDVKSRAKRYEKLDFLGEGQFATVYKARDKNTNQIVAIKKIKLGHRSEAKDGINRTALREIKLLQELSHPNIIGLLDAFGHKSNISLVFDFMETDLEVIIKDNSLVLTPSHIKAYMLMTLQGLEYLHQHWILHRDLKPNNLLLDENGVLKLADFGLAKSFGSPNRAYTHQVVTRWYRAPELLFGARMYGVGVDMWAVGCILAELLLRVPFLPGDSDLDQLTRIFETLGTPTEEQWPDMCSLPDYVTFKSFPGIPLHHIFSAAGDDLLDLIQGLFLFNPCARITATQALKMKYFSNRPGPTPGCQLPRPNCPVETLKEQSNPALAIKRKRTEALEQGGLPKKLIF
Sequence of NUAK family SNF1-like kinase 2 (Homo sapiens) (Q9H093 whole entry): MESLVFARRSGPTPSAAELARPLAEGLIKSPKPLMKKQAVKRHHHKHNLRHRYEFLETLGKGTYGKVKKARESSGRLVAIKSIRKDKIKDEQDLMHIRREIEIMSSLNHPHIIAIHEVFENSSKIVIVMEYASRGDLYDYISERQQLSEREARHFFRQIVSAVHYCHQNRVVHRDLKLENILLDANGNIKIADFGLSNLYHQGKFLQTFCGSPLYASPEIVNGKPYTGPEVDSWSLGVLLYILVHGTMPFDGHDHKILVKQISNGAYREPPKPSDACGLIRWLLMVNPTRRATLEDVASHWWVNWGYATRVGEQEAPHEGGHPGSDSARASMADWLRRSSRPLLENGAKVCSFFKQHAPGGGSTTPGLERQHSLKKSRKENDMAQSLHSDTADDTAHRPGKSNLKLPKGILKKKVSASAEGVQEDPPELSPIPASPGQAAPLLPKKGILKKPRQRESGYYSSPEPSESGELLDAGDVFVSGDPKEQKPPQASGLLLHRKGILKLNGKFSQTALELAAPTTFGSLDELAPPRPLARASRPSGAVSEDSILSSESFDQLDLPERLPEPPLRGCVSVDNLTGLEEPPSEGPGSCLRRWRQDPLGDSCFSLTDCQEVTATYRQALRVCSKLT
Sequence of Death-associated protein kinase 3 (Homo sapiens) (O43293 whole entry, looked up): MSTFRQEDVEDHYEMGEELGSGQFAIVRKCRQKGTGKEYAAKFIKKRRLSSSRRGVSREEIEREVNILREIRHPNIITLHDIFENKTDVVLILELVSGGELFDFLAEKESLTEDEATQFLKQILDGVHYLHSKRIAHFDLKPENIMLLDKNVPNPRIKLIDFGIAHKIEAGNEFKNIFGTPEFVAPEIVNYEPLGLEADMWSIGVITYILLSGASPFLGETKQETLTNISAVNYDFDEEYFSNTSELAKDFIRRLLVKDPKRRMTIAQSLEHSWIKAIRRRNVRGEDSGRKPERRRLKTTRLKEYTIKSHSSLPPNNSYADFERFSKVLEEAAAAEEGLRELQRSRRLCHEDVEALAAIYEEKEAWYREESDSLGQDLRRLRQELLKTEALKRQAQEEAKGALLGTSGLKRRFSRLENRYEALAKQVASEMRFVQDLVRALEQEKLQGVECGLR
Sequence of RAF proto-oncogene serine/threonine-protein kinase (Homo sapiens) (P04049 whole entry, canonical isoform): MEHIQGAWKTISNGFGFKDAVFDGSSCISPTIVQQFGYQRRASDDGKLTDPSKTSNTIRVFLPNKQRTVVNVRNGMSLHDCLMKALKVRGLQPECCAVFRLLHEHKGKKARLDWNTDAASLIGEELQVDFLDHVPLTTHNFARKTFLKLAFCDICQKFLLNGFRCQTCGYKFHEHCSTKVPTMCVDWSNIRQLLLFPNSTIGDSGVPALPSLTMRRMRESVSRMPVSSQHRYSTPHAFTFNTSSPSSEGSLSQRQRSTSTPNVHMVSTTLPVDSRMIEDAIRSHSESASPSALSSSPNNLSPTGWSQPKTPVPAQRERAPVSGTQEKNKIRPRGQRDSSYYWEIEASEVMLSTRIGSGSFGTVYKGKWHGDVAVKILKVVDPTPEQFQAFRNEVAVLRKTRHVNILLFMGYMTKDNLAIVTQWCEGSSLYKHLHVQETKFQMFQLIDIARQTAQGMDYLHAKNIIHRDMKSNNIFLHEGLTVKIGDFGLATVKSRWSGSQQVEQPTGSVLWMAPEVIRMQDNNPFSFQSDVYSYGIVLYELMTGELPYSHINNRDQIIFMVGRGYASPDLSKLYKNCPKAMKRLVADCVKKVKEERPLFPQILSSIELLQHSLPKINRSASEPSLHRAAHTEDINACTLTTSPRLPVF
Sequence of Ephrin type-B receptor 1 (Homo sapiens) (P54762 whole entry, canonical isoform): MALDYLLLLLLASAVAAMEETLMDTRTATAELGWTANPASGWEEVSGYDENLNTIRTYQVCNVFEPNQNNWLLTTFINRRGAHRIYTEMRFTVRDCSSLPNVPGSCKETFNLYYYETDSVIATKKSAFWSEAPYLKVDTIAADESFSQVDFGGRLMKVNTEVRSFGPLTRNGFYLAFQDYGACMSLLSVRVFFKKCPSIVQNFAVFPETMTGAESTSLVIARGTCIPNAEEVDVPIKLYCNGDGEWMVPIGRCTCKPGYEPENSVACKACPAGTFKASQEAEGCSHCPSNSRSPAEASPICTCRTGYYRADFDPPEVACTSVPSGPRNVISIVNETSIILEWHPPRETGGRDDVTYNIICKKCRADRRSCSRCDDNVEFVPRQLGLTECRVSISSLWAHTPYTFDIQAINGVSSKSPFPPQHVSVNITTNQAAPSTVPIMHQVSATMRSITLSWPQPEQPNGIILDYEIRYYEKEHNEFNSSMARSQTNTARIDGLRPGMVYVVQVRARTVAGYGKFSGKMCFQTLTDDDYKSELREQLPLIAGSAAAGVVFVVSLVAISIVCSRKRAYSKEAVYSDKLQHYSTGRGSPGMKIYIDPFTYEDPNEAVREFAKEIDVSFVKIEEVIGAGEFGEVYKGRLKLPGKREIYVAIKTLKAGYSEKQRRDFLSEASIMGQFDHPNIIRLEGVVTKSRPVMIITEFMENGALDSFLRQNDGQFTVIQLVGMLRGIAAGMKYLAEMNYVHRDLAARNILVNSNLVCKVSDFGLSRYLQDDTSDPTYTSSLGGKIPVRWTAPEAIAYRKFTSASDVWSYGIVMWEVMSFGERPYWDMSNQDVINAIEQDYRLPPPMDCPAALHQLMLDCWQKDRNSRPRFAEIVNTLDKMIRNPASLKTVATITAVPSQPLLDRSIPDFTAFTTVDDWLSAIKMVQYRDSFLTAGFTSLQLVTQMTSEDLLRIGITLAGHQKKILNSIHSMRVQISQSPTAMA
Sequence of Non-receptor tyrosine-protein kinase TYK2 (Homo sapiens) (P29597 whole entry): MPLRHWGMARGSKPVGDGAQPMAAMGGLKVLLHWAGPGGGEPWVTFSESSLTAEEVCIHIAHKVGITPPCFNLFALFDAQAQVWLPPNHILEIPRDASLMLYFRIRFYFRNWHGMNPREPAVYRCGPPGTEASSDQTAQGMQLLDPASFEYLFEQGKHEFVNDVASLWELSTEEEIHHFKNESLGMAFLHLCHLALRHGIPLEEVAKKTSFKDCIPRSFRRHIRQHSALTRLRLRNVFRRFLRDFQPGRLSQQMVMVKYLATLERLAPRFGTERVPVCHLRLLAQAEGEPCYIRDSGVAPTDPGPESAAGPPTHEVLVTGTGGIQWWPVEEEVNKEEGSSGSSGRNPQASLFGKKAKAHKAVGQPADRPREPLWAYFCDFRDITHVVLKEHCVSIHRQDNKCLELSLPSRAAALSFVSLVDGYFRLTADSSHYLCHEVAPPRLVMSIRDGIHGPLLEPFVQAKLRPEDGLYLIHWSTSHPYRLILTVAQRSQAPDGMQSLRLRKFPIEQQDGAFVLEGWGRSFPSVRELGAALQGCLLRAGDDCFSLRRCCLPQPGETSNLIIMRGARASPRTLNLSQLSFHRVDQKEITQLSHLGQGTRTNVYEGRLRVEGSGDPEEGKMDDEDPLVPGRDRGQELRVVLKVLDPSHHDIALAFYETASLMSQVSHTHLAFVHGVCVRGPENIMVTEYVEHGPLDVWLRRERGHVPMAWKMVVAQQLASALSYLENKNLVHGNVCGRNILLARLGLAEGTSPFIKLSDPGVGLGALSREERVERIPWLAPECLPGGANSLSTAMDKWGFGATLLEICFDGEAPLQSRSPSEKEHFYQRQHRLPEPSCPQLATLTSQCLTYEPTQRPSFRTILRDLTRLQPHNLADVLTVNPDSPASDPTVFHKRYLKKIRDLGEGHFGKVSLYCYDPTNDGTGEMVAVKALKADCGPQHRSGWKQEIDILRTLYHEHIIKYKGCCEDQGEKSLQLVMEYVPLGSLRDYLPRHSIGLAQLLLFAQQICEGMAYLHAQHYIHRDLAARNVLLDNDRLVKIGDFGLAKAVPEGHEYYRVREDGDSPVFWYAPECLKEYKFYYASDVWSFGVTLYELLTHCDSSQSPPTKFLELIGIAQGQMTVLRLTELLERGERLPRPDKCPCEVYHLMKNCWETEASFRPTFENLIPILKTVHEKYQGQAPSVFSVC
Sequence of Aurora kinase B (Homo sapiens) (Q96GD4 whole entry): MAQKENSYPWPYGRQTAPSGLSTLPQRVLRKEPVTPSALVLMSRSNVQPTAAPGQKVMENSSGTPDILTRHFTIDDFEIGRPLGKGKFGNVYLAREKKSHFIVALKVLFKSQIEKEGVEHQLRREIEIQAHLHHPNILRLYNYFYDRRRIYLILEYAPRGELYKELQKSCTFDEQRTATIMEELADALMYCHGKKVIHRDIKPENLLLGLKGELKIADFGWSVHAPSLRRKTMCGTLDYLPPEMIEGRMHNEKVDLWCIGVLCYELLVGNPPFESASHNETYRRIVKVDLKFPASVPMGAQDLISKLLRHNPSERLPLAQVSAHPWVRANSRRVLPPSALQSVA

Work on `Cc1nc(Cc2cccc(C(F)(F)F)c2)sc1-c1ccc(C(N)=O)nc1` [TP-024n] yielded a residual activity [1] of 100%, a residual activity [2] of 83% and a residual activity [3] of 83%. It also gave an inhibition [4] of -2.16%, a residual activity [5] of 100% and a residual activity [6] of 100%. It also gave a residual activity [7] of 100%, a residual activity [8] of 100% and a residual activity [9] of 100%. For the same compound, the residual activity [10] was 100%, the residual activity [11] was 96% and the residual activity [12] was 99%. It also gave a residual activity [13] of 100%, an inhibition [14] of 5.89% and an inhibition [15] of 4.72%. It also gave a residual activity [16] of 68%, a residual activity [17] of 100% and a residual activity [18] of 78%. For the same compound, the residual activity [19] was 100%, the residual activity [20] was 100% and the residual activity [21] was 49%. It also gave a residual activity [22] of 15%, an inhibition [23] of 12.8% and a residual activity [24] of 100%. It also gave a residual activity [25] of 85%, a residual activity [26] of 90% and a residual activity [27] of 88%. It also gave a residual activity [28] of 96%, a residual activity [29] of 90% and a residual activity [30] of 100%. The residual activity [31] was 100%, the residual activity [32] was 100% and the residual activity [33] was 70%. It also gave a residual activity [34] of 77%, a residual activity [35] of 100% and a residual activity [36] of 76%. For the same compound, the residual activity [37] was 82%, the residual activity [38] was 86% and the residual activity [39] was 100%. The residual activity [40] was 100%, the residual activity [41] was 92% and the residual activity [42] was 98%. The inhibition [43] was 13.8%, the residual activity [44] was 100% and the residual activity [45] was 100%.
With `Cc1cc(-n2nc(Cc3cc(F)cc(C(F)(F)F)c3)nc2C)ccc1C(N)=O` [TP-024] the residual activity [1] was 97%, the residual activity [2] was 85% and the residual activity [3] was 95%. It also gave an inhibition [4] of -2.09%, a residual activity [5] of 100% and a residual activity [6] of 100%. It also gave a residual activity [7] of 100%, a residual activity [8] of 94% and a residual activity [9] of 100%. For the same compound, the residual activity [10] was 100%, the residual activity [11] was 100% and the residual activity [12] was 100%. It also gave a residual activity [13] of 97%, an inhibition [14] of 10.1% and an inhibition [15] of 5.45%. For the same compound, the residual activity [16] was 100%, the residual activity [17] was 100% and the residual activity [18] was 97%. The residual activity [19] was 100%, the residual activity [20] was 100% and the residual activity [21] was 62%. The residual activity [22] was 95%, the inhibition [23] was 5.69% and the residual activity [24] was 100%. The residual activity [25] was 100%, the residual activity [26] was 100% and the residual activity [27] was 87%. For the same compound, the residual activity [28] was 100%, the residual activity [29] was 100% and the residual activity [30] was 99%. It also gave a residual activity [31] of 100%, a residual activity [32] of 100% and a residual activity [33] of 87%. It also gave a residual activity [34] of 71%, a residual activity [35] of 100% and a residual activity [36] of 85%. It also gave a residual activity [37] of 100%, a residual activity [38] of 100% and a residual activity [39] of 100%. It also gave a residual activity [40] of 87%, a residual activity [41] of 77% and a residual activity [42] of 100%. For the same compound, the inhibition [43] was 14.3%, the residual activity [44] was 100% and the residual activity [45] was 100%.
